{"source": "the kinase profiling compilation of Christmann-Franck et al. (2016)", "experiment_in_all_cases": "radiometric filter-binding kinase assay, Kinase HotSpot", "conditions_in_all_cases": "compound 0.5 µM; ATP 10 µM", "key": {"NEK7 (human)": {"biological_target": "NEK7 (human) (UniProt Q8TDX7)", "sequence (Q8TDX7 whole entry, looked up)": "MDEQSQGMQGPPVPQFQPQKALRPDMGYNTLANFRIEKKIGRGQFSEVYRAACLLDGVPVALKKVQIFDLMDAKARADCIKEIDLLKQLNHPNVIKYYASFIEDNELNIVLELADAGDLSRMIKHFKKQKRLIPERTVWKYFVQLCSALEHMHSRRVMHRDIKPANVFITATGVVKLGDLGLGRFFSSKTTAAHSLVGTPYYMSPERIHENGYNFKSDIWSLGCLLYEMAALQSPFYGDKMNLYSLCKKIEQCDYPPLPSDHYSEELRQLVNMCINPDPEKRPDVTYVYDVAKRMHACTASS"}, "MST4 (human)": {"biological_target": "MST4 (human) (UniProt Q9P289)"}, "DMPK (human)": {"biological_target": "DMPK (human) (UniProt Q09013)"}, "GSG2 (human)": {"biological_target": "GSG2 (human) (UniProt Q8TF76)"}, "DCLK2 (human)": {"biological_target": "DCLK2 (human) (UniProt Q8N568)"}, "YES1 (human)": {"biological_target": "YES1 (human) (UniProt P07947)"}, "RPS6KA5 KD2 (human)": {"biological_target": "RPS6KA5 KD2 (human) (UniProt O75582)"}, "MARK4 (human)": {"biological_target": "MARK4 (human) (UniProt Q96L34)"}, "PAK4 (human)": {"biological_target": "PAK4 (human) (UniProt O96013)"}, "CDK7 CCNH MNAT1 (human)": {"biological_target": "CDK7 CCNH MNAT1 (human) (UniProt P50613+P51948+P51946)"}, "ZAP70 (human)": {"biological_target": "ZAP70 (human) (UniProt P43403)"}, "BLK (human)": {"biological_target": "BLK (human) (UniProt P51451)"}, "CDK4 CCND3 (human)": {"biological_target": "CDK4 CCND3 (human) (UniProt P30281+P11802)"}, "PKN2 (human)": {"biological_target": "PKN2 (human) (UniProt Q16513)"}, "CDK5 CDK5R1 p25 (human)": {"biological_target": "CDK5 CDK5R1 p25 (human) (UniProt Q00535+Q15078)"}, "STK17A (human)": {"biological_target": "STK17A (human) (UniProt Q9UEE5)"}, "STK11 (human)": {"biological_target": "STK11 (human) (UniProt Q15831)"}, "EPHA8 (human)": {"biological_target": "EPHA8 (human) (UniProt P29322)"}, "FGFR1 (human)": {"biological_target": "FGFR1 (human) (UniProt P11362)"}, "GRK4 (human)": {"biological_target": "GRK4 (human) (UniProt P32298)", "sequence (P32298 whole entry, looked up)": "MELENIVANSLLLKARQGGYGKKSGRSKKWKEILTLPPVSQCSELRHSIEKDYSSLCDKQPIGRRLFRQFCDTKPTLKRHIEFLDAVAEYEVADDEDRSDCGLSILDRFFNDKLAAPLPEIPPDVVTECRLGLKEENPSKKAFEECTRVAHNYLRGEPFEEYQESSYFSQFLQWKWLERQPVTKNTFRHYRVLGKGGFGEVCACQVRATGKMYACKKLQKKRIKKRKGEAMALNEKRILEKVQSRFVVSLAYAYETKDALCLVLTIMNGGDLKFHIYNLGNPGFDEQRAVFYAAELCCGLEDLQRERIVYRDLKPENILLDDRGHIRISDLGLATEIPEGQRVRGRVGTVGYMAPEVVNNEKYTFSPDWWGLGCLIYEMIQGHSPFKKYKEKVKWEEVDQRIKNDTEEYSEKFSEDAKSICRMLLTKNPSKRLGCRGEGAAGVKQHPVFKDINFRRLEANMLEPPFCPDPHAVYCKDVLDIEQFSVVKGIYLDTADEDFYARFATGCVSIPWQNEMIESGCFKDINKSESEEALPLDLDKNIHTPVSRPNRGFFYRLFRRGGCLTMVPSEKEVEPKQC"}, "MAPK12 (human)": {"biological_target": "MAPK12 (human) (UniProt P53778)"}, "PRKCZ (human)": {"biological_target": "PRKCZ (human) (UniProt Q05513)"}, "AKT2 (human)": {"biological_target": "AKT2 (human) (UniProt P31751)", "sequence (P31751 whole entry, looked up)": "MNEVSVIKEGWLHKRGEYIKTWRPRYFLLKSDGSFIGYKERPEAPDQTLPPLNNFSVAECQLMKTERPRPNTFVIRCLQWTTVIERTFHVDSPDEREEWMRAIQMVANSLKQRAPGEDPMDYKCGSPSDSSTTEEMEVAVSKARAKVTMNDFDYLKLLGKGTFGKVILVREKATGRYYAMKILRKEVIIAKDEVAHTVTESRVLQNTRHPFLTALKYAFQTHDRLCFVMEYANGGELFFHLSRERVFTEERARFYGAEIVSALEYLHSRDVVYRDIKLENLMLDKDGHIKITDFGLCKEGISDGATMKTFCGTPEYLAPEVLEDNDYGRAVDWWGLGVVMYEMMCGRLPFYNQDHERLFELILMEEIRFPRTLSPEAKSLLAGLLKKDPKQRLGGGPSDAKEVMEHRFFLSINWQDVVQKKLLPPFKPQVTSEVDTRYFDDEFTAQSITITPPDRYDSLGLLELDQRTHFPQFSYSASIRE"}, "SRC (human)": {"biological_target": "SRC (human) (UniProt P12931)"}, "INSRR (human)": {"biological_target": "INSRR (human) (UniProt P14616)"}, "TAOK1 (human)": {"biological_target": "TAOK1 (human) (UniProt Q7L7X3)"}, "WNK2 (human)": {"biological_target": "WNK2 (human) (UniProt Q9Y3S1)"}, "HCK (human)": {"biological_target": "HCK (human) (UniProt P08631)", "sequence (P08631 whole entry, looked up)": "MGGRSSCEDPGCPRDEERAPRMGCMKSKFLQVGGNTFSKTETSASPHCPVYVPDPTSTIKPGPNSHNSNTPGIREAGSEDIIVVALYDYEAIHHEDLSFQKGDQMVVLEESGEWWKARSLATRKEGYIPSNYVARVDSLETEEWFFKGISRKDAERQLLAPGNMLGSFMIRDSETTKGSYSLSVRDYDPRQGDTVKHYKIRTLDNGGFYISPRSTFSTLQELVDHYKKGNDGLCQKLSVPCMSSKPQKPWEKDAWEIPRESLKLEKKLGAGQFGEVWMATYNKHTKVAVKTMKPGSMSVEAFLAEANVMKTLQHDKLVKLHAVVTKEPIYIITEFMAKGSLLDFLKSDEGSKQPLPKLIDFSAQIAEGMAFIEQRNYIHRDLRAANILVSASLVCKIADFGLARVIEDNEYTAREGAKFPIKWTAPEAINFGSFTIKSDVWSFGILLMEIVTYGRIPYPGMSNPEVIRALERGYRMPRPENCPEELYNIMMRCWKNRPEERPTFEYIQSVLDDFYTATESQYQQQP"}, "SGK2 (human)": {"biological_target": "SGK2 (human) (UniProt Q9HBY8)", "sequence (Q9HBY8 whole entry, looked up)": "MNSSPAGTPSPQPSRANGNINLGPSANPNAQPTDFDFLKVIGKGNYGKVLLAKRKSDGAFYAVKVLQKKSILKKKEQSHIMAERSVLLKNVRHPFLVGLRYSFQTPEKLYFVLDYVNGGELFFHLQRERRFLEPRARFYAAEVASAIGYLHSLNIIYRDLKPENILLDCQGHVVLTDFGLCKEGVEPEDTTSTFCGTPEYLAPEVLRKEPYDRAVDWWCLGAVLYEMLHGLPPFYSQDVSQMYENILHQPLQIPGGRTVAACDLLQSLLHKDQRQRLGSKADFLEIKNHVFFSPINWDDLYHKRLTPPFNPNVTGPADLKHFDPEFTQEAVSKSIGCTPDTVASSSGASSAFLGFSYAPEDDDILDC"}, "WEE1 (human)": {"biological_target": "WEE1 (human) (UniProt P30291)"}, "CSNK1D (human)": {"biological_target": "CSNK1D (human) (UniProt P48730)", "sequence (P48730 whole entry, looked up)": "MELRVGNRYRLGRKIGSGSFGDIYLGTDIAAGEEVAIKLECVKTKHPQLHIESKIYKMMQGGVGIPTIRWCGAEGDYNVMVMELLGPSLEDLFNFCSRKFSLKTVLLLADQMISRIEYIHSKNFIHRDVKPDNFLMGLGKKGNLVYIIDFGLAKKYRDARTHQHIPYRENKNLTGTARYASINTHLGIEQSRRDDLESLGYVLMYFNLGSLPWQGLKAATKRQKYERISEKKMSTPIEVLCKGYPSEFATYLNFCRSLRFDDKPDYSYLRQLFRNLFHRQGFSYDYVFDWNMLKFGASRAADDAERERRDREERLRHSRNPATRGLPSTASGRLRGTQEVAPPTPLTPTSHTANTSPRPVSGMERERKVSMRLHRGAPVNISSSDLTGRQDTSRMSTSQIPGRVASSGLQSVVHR"}, "HIPK2 (human)": {"biological_target": "HIPK2 (human) (UniProt Q9H2X6)"}, "PRKCB1 (human)": {"biological_target": "PRKCB1 (human) (UniProt P05771)"}, "MAPK13 (human)": {"biological_target": "MAPK13 (human) (UniProt O15264)"}, "FGFR3 (human)": {"biological_target": "FGFR3 (human) (UniProt P22607)", "sequence (P22607 whole entry, looked up)": "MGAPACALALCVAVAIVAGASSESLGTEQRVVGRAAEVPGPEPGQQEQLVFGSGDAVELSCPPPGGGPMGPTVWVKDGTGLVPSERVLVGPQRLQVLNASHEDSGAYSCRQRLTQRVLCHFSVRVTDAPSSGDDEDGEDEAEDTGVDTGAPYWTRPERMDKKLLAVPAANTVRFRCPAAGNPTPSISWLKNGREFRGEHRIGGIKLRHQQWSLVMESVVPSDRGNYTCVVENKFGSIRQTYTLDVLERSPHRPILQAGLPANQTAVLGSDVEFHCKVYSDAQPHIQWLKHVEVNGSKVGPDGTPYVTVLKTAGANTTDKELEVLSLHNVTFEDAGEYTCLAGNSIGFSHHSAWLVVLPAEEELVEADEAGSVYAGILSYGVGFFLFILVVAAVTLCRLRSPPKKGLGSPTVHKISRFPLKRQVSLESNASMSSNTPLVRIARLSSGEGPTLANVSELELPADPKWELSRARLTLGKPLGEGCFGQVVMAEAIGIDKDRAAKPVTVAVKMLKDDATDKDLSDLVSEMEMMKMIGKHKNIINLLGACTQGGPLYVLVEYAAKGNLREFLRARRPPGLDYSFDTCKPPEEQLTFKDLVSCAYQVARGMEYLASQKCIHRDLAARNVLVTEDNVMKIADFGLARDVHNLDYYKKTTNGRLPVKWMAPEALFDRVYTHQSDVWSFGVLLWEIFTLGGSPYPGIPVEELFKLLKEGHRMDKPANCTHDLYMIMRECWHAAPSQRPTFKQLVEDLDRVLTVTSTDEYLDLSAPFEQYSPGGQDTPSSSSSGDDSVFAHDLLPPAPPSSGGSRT"}, "PLK1 (human)": {"biological_target": "PLK1 (human) (UniProt P53350)"}, "DDR2 (human)": {"biological_target": "DDR2 (human) (UniProt Q16832)", "sequence (Q16832 whole entry, looked up)": "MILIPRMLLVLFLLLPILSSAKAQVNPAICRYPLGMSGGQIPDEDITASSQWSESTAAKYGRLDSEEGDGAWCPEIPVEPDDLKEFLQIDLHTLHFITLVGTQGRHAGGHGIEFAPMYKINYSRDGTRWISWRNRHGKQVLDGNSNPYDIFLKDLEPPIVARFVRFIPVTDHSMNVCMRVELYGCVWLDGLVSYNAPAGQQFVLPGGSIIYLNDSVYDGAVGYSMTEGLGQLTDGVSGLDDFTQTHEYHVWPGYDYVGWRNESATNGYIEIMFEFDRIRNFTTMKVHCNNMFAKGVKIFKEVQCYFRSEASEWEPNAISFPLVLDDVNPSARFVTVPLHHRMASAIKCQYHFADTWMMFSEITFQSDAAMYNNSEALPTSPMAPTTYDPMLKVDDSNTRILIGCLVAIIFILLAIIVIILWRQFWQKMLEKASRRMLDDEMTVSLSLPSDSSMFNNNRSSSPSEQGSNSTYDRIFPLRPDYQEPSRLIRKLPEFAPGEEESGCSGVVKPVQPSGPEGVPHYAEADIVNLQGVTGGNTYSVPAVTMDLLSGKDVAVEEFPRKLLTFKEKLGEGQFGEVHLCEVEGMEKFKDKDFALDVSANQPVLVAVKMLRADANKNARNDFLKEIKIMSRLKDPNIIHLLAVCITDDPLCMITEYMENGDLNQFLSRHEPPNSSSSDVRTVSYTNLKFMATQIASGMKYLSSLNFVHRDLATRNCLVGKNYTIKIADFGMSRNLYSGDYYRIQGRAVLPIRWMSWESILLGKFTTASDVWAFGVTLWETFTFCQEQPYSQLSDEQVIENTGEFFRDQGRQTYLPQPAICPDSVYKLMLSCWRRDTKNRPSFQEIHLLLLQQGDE"}, "IKBKE (human)": {"biological_target": "IKBKE (human) (UniProt Q14164)"}, "RPS6KB2 (human)": {"biological_target": "RPS6KB2 (human) (UniProt Q9UBS0)"}, "BMX (human)": {"biological_target": "BMX (human) (UniProt P51813)", "sequence (P51813 whole entry, looked up)": "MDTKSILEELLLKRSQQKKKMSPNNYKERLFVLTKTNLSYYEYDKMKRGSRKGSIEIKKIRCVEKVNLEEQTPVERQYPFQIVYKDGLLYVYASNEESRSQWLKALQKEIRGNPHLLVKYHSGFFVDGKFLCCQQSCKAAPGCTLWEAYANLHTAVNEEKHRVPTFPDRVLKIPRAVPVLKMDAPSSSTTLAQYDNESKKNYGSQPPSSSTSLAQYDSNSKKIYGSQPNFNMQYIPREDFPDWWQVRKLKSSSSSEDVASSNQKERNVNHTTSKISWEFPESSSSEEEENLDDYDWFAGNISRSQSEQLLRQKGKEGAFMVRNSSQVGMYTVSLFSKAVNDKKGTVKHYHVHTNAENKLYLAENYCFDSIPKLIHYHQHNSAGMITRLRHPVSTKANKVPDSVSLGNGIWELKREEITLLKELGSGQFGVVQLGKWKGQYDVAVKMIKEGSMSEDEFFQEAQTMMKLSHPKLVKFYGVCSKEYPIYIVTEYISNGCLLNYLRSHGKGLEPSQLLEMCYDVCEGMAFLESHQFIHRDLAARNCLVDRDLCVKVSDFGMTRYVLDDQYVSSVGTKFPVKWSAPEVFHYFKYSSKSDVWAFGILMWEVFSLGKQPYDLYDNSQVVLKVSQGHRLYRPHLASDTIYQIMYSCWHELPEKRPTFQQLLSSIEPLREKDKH"}, "EPHA7 (human)": {"biological_target": "EPHA7 (human) (UniProt Q15375)"}, "TGFBR2 (human)": {"biological_target": "TGFBR2 (human) (UniProt P37173)"}}}
{"smiles": "O=C1NC(=O)c2c1c1c3ccccc3n3c1c1c2c2ccccc2n1C1CCC3O1", "values": [{"measurement": "residual activity", "setting": "NEK7 (human)", "result": 99.1, "unit": "%"}, {"measurement": "residual activity", "setting": "MST4 (human)", "result": 20.5, "unit": "%"}, {"measurement": "residual activity", "setting": "DMPK (human)", "result": 98.8, "unit": "%"}, {"measurement": "residual activity", "setting": "GSG2 (human)", "result": 18.5, "unit": "%"}, {"measurement": "residual activity", "setting": "DCLK2 (human)", "result": 89.6, "unit": "%"}, {"measurement": "residual activity", "setting": "YES1 (human)", "result": 31.9, "unit": "%"}, {"measurement": "residual activity", "setting": "RPS6KA5 KD2 (human)", "result": 9.88, "unit": "%"}, {"measurement": "residual activity", "setting": "MARK4 (human)", "result": 5.31, "unit": "%"}, {"measurement": "residual activity", "setting": "PAK4 (human)", "result": 75.3, "unit": "%"}, {"measurement": "residual activity", "setting": "CDK7 CCNH MNAT1 (human)", "result": 80.4, "unit": "%"}, {"measurement": "residual activity", "setting": "ZAP70 (human)", "result": 88.4, "unit": "%"}, {"measurement": "residual activity", "setting": "BLK (human)", "result": 37.7, "unit": "%"}, {"measurement": "residual activity", "setting": "CDK4 CCND3 (human)", "result": 22.2, "unit": "%"}, {"measurement": "residual activity", "setting": "PKN2 (human)", "result": 15.9, "unit": "%"}, {"measurement": "residual activity", "setting": "CDK5 CDK5R1 p25 (human)", "result": 28, "unit": "%"}, {"measurement": "residual activity", "setting": "STK17A (human)", "result": 8.65, "unit": "%"}, {"measurement": "residual activity", "setting": "STK11 (human)", "result": 50.5, "unit": "%"}, {"measurement": "residual activity", "setting": "EPHA8 (human)", "result": 89.9, "unit": "%"}, {"measurement": "residual activity", "setting": "FGFR1 (human)", "result": 29.1, "unit": "%"}, {"measurement": "residual activity", "setting": "GRK4 (human)", "result": 77, "unit": "%"}, {"measurement": "residual activity", "setting": "MAPK12 (human)", "result": 113, "unit": "%"}, {"measurement": "residual activity", "setting": "PRKCZ (human)", "result": 87.4, "unit": "%"}, {"measurement": "residual activity", "setting": "AKT2 (human)", "result": 48.5, "unit": "%"}, {"measurement": "residual activity", "setting": "SRC (human)", "result": 69.5, "unit": "%"}, {"measurement": "residual activity", "setting": "INSRR (human)", "result": 7.16, "unit": "%"}, {"measurement": "residual activity", "setting": "TAOK1 (human)", "result": 66.9, "unit": "%"}, {"measurement": "residual activity", "setting": "WNK2 (human)", "result": 93.6, "unit": "%"}, {"measurement": "residual activity", "setting": "HCK (human)", "result": 24.8, "unit": "%"}, {"measurement": "residual activity", "setting": "SGK2 (human)", "result": 18.6, "unit": "%"}, {"measurement": "residual activity", "setting": "WEE1 (human)", "result": 16.9, "unit": "%"}, {"measurement": "residual activity", "setting": "CSNK1D (human)", "result": 93.8, "unit": "%"}, {"measurement": "residual activity", "setting": "HIPK2 (human)", "result": 32.6, "unit": "%"}, {"measurement": "residual activity", "setting": "PRKCB1 (human)", "result": 22.5, "unit": "%"}, {"measurement": "residual activity", "setting": "MAPK13 (human)", "result": 114, "unit": "%"}, {"measurement": "residual activity", "setting": "FGFR3 (human)", "result": 36.3, "unit": "%"}, {"measurement": "residual activity", "setting": "PLK1 (human)", "result": 50.2, "unit": "%"}, {"measurement": "residual activity", "setting": "DDR2 (human)", "result": 80.1, "unit": "%"}, {"measurement": "residual activity", "setting": "IKBKE (human)", "result": 23.9, "unit": "%"}, {"measurement": "residual activity", "setting": "RPS6KB2 (human)", "result": 35, "unit": "%"}, {"measurement": "residual activity", "setting": "BMX (human)", "result": 27.5, "unit": "%"}, {"measurement": "residual activity", "setting": "EPHA7 (human)", "result": 69.2, "unit": "%"}, {"measurement": "residual activity", "setting": "TGFBR2 (human)", "result": 70.3, "unit": "%"}]}
